The test relates to depolarization-induced 3H-glutamate release from brain nerve terminals. The test can be described thus: Inhibition of 3H-glutamate release, high [K+] depolarization, rapid superfusion of synaptosomes. Particulars: rat brain synaptosomes; for % Inhibition of ^3H-Glu Rel @ 0.3 μM: 0.3 μM compound; for % Inhibition of ^3H-Glu Rel @ 0.1 μM: 0.1 μM compound; for % Inhibition of ^3H-Glu Rel @ 1 μM: 1 μM compound. The format is biochemical.

The record followed here is patent US6787569B1, “Therapeutic guanidines” (Cambridge NeuroScience, Inc., priority 1994, dated 2004).

Regarding `CCOc1ccc(Cc2cccc(CCNC(=N)Nc3ccc(C(C)(C)C)cc3)c2)cc1.CS(=O)(=O)O` [Example 97, N-(3-(1-(4′-Ethoxy)benzyl)phenethyl)-N′-(4-tert-butylphenyl)guanidine.mesylate], the “% Inhibition of ^3H-Glu Rel @ 0.3 μM” value is reported as 31%. Consider `CCCCCCc1ccc(NC(=N)Nc2ccc(CCCCCC)cc2)cc1.CS(=O)(=O)O` [Example 96, N,N′-Bis-(4-Hexylphenyl)guanidine.mesylate], for which the “% Inhibition of ^3H-Glu Rel @ 0.1 μM” value came to 54% and the “% Inhibition of ^3H-Glu Rel @ 0.3 μM” value worked out at 54%.

With `CC(Cc1ccc(Cl)cc1)NC(=N)Nc1ccc2c3c(cccc13)CC2.Cl` (stereo not shown) [Example 40, N-(5-Acenaphthyl)-N′-(1-methyl-2-(4-chlorophenyl)ethyl)guanidine.HCl], the “% Inhibition of ^3H-Glu Rel @ 0.3 μM” value is 46% and the “% Inhibition of ^3H-Glu Rel @ 1 μM” value turned out to be 64%.

In the case of `Br.CC(C)(C)c1cccc(NC(=N)Nc2cccc(C(C)(C)C)c2)c1` [Example 31, N,N′-Di-(3-tert-butylphenyl)guanidine.HBr], the “% Inhibition of ^3H-Glu Rel @ 1 μM” value was 24%. As to `CCC(C)c1ccc(N(C)C(=N)N(Cc2ccc(C(C)(C)C)cc2)c2ccc(C(C)(C)C)cc2)cc1.Cl` (stereo not shown) [Example 83, N-(4-tert-Butylphenyl)-N-(4-tert-butylbenzyl)-N′-(4-sec-butylphenyl)-N′-(methyl)guanidine.HCl], the “% Inhibition of ^3H-Glu Rel @ 0.3 μM” value was determined as 31% and the “% Inhibition of ^3H-Glu Rel @ 1 μM” value came to 63%. In the case of `CCCC(Cc1ccccc1)c1cccc(NC(=N)Nc2ccc(C(C)(C)C)cc2)c1.CS(=O)(=O)O` (stereo not shown) [Example 100, N-(3-(1′-Benzylbutyl)phenyl)-N′-(4-tert-butylphenyl)guanidine.mesylate], the “% Inhibition of ^3H-Glu Rel @ 0.3 μM” value is given as 20%. As to `CCCCc1ccc(NC(=N)N(CCCC)c2ccc(CCCC)cc2)cc1.Cl` [Example 105, N,N′-Bis-(4-butylphenyl)-N-butylguanidine.HCl], the “% Inhibition of ^3H-Glu Rel @ 0.1 μM” value is on record as 24% and the “% Inhibition of ^3H-Glu Rel @ 0.3 μM” value stood at 86%. Turning to `CN(C(=N)Nc1ccc(C(C)(C)C)cc1)c1ccc(OCc2ccccc2)cc1.CS(=O)(=O)O` [Example 95, N-Methyl-N-4-benzyloxyphenyl-N′-(4-tert-butylphenyl)guanidin.mesylat], the “% Inhibition of ^3H-Glu Rel @ 0.3 μM” value worked out at 44% and the “% Inhibition of ^3H-Glu Rel @ 1 μM” value turned out to be 100%. Consider `CCC(C)c1ccc(N(Cc2ccc(C(C)(C)C)cc2)C(=N)N2CCc3ccccc3C2)cc1.Cl` (stereo not shown) [Example 80], for which the “% Inhibition of ^3H-Glu Rel @ 0.3 μM” value was found to be 68%. With `CC(C)(C)c1ccc(CN(C(=N)N)c2cccc3ccccc23)cc1.Cl` [Example 47, N-(1-Naphthyl)-N-4(tert-butylbenzyl)guanidine.HCl], the “% Inhibition of ^3H-Glu Rel @ 1 μM” value stood at 40%. Turning to “N-(4-sec-Butylphenyl)-N-(4-tert-butylbenzyl)-N′-piperidinylguanidine.HCl [Example 74]”, the “% Inhibition of ^3H-Glu Rel @ 0.3 μM” value stood at 21% and the “% Inhibition of ^3H-Glu Rel @ 1 μM” value came out at 100%. In the case of “N-(5-Acenaphthyl)-N′-((4-tert-butylphenyl)-(4-sec-butylphenyl)-N′-methylguanidine.HCl [Example 60]”, the “% Inhibition of ^3H-Glu Rel @ 3 μM” value (3 μM compound) is 32%. In the case of `N=C(Nc1ccc(OCc2ccccc2)cc1)Nc1ccc(SCc2ccccc2)cc1` [N-(4-benzyloxyphenyl)-N′-(4-benzylthiophenyl)guanidine], the “% Inhibition of ^3H-Glu Rel @ 0.3 μM” value amounted to 81%. In the case of `CCC(C)c1cccc(N(Cc2ccc(C(C)(C)C)cc2)C(=N)N)c1.Cl` (stereo not shown) [Example 62, N-(3-sec-Butylphenyl)-N-(4-tert-butylbenzyl)guanidine.HCl], the “% Inhibition of ^3H-Glu Rel @ 1 μM” value was determined as 22%.

Consider `CCC(C)c1ccc(N(Cc2ccc(C(C)(C)C)cc2)C(=N)Nc2ccccc2)cc1.Cl` (stereo not shown) [Example 85, N-(4-sec-Butylphenyl)-N-(4-tert-butylbenzyl)-N′-(phenyl)guanidine.HCl], for which the “% Inhibition of ^3H-Glu Rel @ 0.3 μM” value is on record as 55% and the “% Inhibition of ^3H-Glu Rel @ 1 μM” value is 100%. Take `Br.CCCCOc1cc(NC(=N)Nc2ccc(OC)c(OCCCC)c2)ccc1OC` [Example 109, N,N′-Bis-((3-butoxy-4-methoxy)phenyl)guanidine.HBr]: the “% Inhibition of ^3H-Glu Rel @ 0.3 μM” value turned out to be 86%.

Take `Br.N=C(Nc1ccc(Oc2ccccc2)cc1)Nc1ccc(Oc2ccccc2)cc1` [Example 138, N,N′-Bis(4-phenoxyphenyl)guanidine.HBr]: the “% Inhibition of ^3H-Glu Rel @ 0.3 μM” value is reported as 57%. `CC(C)(C)c1ccc(CN(C(=N)N)c2cccc(C(C)(C)C)c2)cc1.Cl` [Example 63, N-(3-tert-Butylphenyl)-N-(4-tert-butylbenzyl)guanidine.HCl]: the “% Inhibition of ^3H-Glu Rel @ 1 μM” value was 40%. `CCC(C)c1ccc(N(Cc2ccc(C(C)(C)C)cc2)C(=N)NN2CCOCC2)cc1.Cl` (stereo not shown) [Example 75, N-(4-sec-Butylphenyl)-N-(4-tert-butylbenzyl)-N′-(4-morpholinyl)guanidine.HCl]: the “% Inhibition of ^3H-Glu Rel @ 0.3 μM” value is on record as 42%. As for `Br.CN(C(=N)Nc1ccc(C(C)(C)C)cc1)c1ccc(C(C)(C)C)cc1` [Example 35, N,N′-Bis(4-tert-butylphenyl)-N-methylguanidine.HBr], the “% Inhibition of ^3H-Glu Rel @ 1 μM” value amounted to 61%.

For the molecule `CCCCCCc1ccc(N(Cc2ccc(C(C)(C)CCC)cc2)C(=N)Nc2ccccc2)cc1.Cl` [Example 90, N-(4-Hexylphenyl)-N-(4-tert-hexylbenzyl)-N′-phenylguanidine.HCl], the “% Inhibition of ^3H-Glu Rel @ 0.3 μM” value is 42%.

Consider `CCC(C)c1ccc(N(Cc2ccc(C(C)(C)C)cc2)C(=N)Nc2ccc(OCc3ccccc3)cc2)cc1.CS(=O)(=O)O` (stereo not shown) [Example 91, N-(4-sec-Butylphenyl)-N-(4-tert-butylbenzyl)-N′-(4-benzyloxyphenyl)guanidine.mesylate], for which the “% Inhibition of ^3H-Glu Rel @ 0.3 μM” value was determined as 49%. For the molecule `CCC(C)c1ccc(N(Cc2ccc(C(C)(C)C)cc2)C(=N)NN2C(C)COCC2C)cc1.Cl` (stereo not shown) [Example 82, N-(4-sec-Butylphenyl)-N-(4-tert-butylbenzyl)-N′-(3,5-dimethyl-4-morpholinyl)guanidine.HCl], the “% Inhibition of ^3H-Glu Rel @ 0.3 μM” value amounted to 60%.

Consider `CC(C)(C)c1ccc(NC(=N)Nc2ccc(OCc3ccccc3)cc2)cc1.Cl` [Example 93, N-(4-Benzyloxyphenyl)-N′-(4-tert-butylphenyl)guanidine.HCl], for which the “% Inhibition of ^3H-Glu Rel @ 0.3 μM” value is listed as 48% and the “% Inhibition of ^3H-Glu Rel @ 1 μM” value is listed as 91%. `CN(C(=N)Nc1cccc(OCc2ccccc2)c1)c1cccc(OCc2ccccc2)c1.Cl` [Example 141, N,N′-Bis(3-benzyloxyphenyl)-N′-methylguanidine.HCl]: the “% Inhibition of ^3H-Glu Rel @ 0.3 μM” value was 67%.

`CCCCOc1ccc(N(Cc2ccc(C(C)(C)C)cc2)C(=N)Nc2ccccc2)cc1.Cl` [Example 87, N-(4-Butoxylphenyl)-N-(4-tert-butylbenzyl)-N′-(phenyl)guanidine.HCl]: the “% Inhibition of ^3H-Glu Rel @ 0.3 μM” value worked out at 36%. Regarding `Br.CN(C(=N)N(C)c1ccc(C(C)(C)C)cc1)c1ccc(C(C)(C)C)cc1` [Example 36, N,N′-Bis(4-tert-butylphenyl)-N,N′-methylguanidine.HBr], the “% Inhibition of ^3H-Glu Rel @ 1 μM” value (1 µM) was determined as 67%. Regarding `CN(C(=N)N(C)c1ccc(C(C)(C)C)cc1)c1ccc(C(C)(C)C)cc1.Cl` [Example 102, N,N′-Bis-(4-tert-butylphenyl)-N,N′-dimethylguanidine.HCl], the “% Inhibition of ^3H-Glu Rel @ 0.1 μM” value was 18% and the “% Inhibition of ^3H-Glu Rel @ 0.3 μM” value amounted to 73%.
